{
  "source": "ChEMBL document CHEMBL4800722",
  "about": "“Data for DCP probe BI 605906” (2021)",
  "key": {"[1]": {"molecular_target": "Alpha-1B adrenergic receptor (Homo sapiens) (UniProt P35368)", "sequence (P35368 whole entry)": "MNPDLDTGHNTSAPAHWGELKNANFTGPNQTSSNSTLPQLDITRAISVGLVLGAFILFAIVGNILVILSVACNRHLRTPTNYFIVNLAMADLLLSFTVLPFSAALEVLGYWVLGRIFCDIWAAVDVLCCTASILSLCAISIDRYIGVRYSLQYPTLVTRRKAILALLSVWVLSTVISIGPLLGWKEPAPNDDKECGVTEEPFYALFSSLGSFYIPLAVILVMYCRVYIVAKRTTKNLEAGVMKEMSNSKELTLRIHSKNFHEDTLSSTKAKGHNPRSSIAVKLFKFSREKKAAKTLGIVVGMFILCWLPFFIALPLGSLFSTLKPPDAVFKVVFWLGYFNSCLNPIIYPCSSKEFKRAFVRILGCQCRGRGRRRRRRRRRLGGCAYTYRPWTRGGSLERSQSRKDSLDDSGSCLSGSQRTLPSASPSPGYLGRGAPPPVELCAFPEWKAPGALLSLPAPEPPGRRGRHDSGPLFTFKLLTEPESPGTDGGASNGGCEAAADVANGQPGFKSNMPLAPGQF", "details": "Compound concentration 10.0 uM; call rule not given here"}, "[2]": {"molecular_target": "Beta-2 adrenergic receptor (Homo sapiens) (UniProt P07550)", "details": "Compound concentration 10.0 uM"}, "[3]": {"molecular_target": "Muscarinic acetylcholine receptor M4 (Homo sapiens) (UniProt P08173)", "sequence (P08173 whole entry)": "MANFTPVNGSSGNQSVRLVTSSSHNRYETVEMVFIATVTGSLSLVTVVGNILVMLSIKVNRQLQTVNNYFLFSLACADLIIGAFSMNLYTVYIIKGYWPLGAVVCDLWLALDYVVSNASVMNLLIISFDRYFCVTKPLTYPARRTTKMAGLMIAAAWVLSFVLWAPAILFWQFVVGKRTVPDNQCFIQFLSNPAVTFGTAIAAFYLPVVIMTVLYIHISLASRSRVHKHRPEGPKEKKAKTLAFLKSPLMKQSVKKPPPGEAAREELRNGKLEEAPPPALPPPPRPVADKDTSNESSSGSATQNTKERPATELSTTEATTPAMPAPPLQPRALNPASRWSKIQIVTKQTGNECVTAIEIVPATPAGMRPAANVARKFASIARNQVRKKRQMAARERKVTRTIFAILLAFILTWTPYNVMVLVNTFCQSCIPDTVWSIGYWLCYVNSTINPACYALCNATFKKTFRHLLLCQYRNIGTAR", "details": "Compound concentration 10.0 uM"}, "[4]": {"molecular_target": "Muscarinic acetylcholine receptor M3 (Homo sapiens) (UniProt P20309)", "details": "Compound concentration 10.0 uM"}, "[5]": {"molecular_target": "Sodium-dependent serotonin transporter (Homo sapiens) (UniProt P31645)", "details": "Compound concentration 10.0 uM"}, "[6]": {"molecular_target": "Inhibitor of nuclear factor kappa-B kinase subunit beta (Homo sapiens, UniProt O14920)", "test": "Biochemical assay"}, "[7]": {"molecular_target": "T1, Sodium-dependent dopamine transporter (Homo sapiens, UniProt Q01959)", "T1 sequence (Q01959 whole entry)": "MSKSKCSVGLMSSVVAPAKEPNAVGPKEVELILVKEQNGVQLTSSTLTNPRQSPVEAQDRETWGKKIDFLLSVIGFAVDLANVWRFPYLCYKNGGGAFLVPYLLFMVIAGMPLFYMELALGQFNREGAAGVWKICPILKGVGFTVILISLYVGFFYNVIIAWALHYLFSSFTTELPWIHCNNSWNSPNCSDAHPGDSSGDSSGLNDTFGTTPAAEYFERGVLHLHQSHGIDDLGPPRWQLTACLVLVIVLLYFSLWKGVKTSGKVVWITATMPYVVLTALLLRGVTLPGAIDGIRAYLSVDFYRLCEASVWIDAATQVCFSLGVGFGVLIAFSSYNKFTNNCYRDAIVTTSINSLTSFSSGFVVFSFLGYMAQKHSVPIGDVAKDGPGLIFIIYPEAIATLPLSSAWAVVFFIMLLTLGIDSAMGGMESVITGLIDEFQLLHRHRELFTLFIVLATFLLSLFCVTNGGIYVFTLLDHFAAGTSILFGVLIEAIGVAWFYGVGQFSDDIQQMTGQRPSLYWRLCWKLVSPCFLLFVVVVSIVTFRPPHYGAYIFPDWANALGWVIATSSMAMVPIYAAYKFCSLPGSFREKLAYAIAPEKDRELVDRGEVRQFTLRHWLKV", "test": "GPCRScan assay: inhibition of DAT", "design": "radioligand conc. used [nm] 3.6 – 16.0, parental cells stable HEK"}, "[8]": {"molecular_target": "Alpha-2A adrenergic receptor (Homo sapiens) (UniProt P08913)", "details": "Compound concentration 10.0 uM"}, "[9]": {"molecular_target": "T2, GABA-A receptor; anion channel (Rattus norvegicus) (UniProt O09028+P15431+P18506+P18508+P19969+P20236+P23574+P23576+P28471+P28473+P30191+P62813+P63079+P63138+Q91ZM7+Q9ES14)", "details": "Compound concentration 10.0 uM"}, "[10]": {"molecular_target": "T3, D(4) dopamine receptor (Homo sapiens) (UniProt P21917)", "T3 sequence (whole entry)": "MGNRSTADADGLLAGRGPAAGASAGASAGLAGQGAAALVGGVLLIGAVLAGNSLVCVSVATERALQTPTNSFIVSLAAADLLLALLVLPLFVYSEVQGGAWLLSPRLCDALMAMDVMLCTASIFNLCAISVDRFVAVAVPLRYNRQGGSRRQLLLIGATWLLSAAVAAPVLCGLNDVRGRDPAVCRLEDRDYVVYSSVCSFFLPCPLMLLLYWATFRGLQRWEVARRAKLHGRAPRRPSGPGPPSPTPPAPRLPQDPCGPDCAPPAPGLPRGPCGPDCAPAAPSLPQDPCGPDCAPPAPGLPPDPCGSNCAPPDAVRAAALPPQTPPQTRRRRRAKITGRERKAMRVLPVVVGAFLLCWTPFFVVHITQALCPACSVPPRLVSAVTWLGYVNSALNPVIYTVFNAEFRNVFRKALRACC", "details": "Compound concentration 10.0 uM"}, "Rattus norvegicus": {"organism": "Rattus norvegicus", "details": "Compound concentration 10.0 uM"}, "[11]": {"molecular_target": "5-hydroxytryptamine receptor 1E (Homo sapiens) (UniProt P28566)", "details": "Compound concentration 10.0 uM"}, "[12]": {"molecular_target": "Muscarinic acetylcholine receptor M1 (Homo sapiens) (UniProt P11229)", "sequence (P11229 whole entry)": "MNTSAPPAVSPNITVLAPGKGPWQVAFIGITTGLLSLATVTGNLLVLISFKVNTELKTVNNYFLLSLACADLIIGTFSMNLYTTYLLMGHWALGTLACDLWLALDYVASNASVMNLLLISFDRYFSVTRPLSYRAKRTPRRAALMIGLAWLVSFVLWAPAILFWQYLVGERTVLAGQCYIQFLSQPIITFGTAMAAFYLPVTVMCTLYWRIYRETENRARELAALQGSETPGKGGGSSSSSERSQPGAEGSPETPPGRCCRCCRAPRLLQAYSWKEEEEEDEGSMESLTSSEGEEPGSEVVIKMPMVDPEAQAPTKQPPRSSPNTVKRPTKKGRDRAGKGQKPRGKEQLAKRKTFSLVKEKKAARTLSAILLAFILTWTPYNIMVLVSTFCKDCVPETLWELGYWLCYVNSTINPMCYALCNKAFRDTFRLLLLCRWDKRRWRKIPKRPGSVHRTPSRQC", "details": "Compound concentration 10.0 uM"}, "[13]": {"molecular_target": "Sodium-dependent noradrenaline transporter (Homo sapiens) (UniProt P23975)", "details": "Compound concentration 10.0 uM"}, "[14]": {"molecular_target": "5-hydroxytryptamine receptor 6 (Homo sapiens) (UniProt P50406)", "details": "Compound concentration 10.0 uM"}, "[15]": {"molecular_target": "Alpha-1A adrenergic receptor (Homo sapiens) (UniProt P35348)", "details": "Compound concentration 10.0 uM"}, "[16]": {"molecular_target": "Sigma intracellular receptor 2 (Homo sapiens) (UniProt Q5BJF2)", "sequence (Q5BJF2 whole entry)": "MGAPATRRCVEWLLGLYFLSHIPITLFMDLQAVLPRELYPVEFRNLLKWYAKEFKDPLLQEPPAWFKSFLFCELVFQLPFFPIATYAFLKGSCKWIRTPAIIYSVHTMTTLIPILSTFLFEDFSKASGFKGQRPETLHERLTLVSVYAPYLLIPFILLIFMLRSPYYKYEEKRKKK", "details": "Compound concentration 10.0 uM"}, "[17]": {"molecular_target": "Alpha-2B adrenergic receptor (Homo sapiens) (UniProt P18089)", "details": "Compound concentration 10.0 uM"}, "[18]": {"molecular_target": "5-hydroxytryptamine receptor 2A (Homo sapiens) (UniProt P28223)", "details": "Compound concentration 10.0 uM"}, "[19]": {"molecular_target": "D(1A) dopamine receptor (Homo sapiens) (UniProt P21728)", "sequence (P21728 whole entry)": "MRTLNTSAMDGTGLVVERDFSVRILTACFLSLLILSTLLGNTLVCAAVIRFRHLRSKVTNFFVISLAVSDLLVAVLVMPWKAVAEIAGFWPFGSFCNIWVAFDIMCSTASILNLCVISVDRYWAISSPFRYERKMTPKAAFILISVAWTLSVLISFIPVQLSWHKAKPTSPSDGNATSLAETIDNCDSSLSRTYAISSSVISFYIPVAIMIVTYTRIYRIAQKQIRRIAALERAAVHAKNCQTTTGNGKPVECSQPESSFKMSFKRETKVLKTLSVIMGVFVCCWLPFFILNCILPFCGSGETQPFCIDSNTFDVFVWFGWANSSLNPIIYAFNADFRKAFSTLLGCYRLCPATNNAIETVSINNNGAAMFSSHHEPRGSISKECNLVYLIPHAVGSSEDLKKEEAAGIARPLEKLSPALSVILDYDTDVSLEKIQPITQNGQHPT", "details": "Compound concentration 10.0 uM"}, "[20]": {"molecular_target": "Muscarinic acetylcholine receptor M2 (Homo sapiens) (UniProt P08172)", "sequence (P08172 whole entry)": "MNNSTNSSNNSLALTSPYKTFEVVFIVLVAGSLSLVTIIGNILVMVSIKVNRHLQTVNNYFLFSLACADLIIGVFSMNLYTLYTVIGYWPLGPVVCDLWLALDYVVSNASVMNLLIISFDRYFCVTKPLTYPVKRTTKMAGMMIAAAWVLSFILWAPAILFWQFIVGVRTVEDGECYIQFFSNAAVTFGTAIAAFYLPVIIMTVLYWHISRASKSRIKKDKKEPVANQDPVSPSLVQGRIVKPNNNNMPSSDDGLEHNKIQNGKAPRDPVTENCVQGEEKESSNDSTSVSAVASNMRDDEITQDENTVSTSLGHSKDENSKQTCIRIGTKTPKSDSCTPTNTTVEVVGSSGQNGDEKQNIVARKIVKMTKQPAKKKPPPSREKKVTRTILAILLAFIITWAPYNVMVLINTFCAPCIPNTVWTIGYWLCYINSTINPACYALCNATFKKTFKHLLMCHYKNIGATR", "details": "Compound concentration 10.0 uM"}, "[21]": {"molecular_target": "Muscarinic acetylcholine receptor M5 (Homo sapiens) (UniProt P08912)", "details": "Compound concentration 10.0 uM"}, "[22]": {"molecular_target": "5-hydroxytryptamine receptor 2B (Homo sapiens) (UniProt P41595)", "details": "Compound concentration 10.0 uM"}, "[23]": {"molecular_target": "T2, GABA-A receptor; anion channel (Rattus norvegicus)", "details": "Compound concentration 10.0 uM", "remark": "listed apart in the source"}, "[24]": {"molecular_target": "5-hydroxytryptamine receptor 1A (Homo sapiens) (UniProt P08908)", "sequence (P08908 whole entry)": "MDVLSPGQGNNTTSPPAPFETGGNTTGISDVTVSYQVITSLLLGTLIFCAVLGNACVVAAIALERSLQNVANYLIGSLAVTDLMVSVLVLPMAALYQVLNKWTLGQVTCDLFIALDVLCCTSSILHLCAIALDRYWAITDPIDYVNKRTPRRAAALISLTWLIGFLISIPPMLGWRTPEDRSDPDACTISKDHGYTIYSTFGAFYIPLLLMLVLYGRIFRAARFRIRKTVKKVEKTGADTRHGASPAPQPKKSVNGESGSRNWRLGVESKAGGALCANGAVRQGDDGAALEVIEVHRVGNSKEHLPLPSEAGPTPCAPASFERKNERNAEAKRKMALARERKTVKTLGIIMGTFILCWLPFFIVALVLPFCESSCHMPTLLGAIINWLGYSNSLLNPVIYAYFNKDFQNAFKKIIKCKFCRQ", "details": "Compound concentration 10.0 uM"}, "[25]": {"molecular_target": "5-hydroxytryptamine receptor 2C (Homo sapiens) (UniProt P28335)", "details": "Compound concentration 10.0 uM"}, "[26]": {"molecular_target": "Mu-type opioid receptor (Homo sapiens) (UniProt P35372)", "sequence (P35372 whole entry)": "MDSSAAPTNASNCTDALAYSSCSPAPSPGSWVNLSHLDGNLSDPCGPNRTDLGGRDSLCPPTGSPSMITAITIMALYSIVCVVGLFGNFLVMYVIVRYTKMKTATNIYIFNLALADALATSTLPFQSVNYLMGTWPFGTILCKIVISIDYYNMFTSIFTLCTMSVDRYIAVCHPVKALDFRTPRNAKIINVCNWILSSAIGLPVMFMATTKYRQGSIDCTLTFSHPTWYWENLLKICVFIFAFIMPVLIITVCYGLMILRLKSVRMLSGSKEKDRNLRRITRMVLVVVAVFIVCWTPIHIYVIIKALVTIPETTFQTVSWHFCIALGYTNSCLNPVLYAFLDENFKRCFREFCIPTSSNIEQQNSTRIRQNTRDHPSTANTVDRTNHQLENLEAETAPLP", "details": "Compound concentration 10.0 uM"}, "[27]": {"molecular_target": "5-hydroxytryptamine receptor 7 (Homo sapiens) (UniProt P34969)", "details": "Compound concentration 10.0 uM"}, "[28]": {"molecular_target": "5-hydroxytryptamine receptor 1D (Homo sapiens) (UniProt P28221)", "details": "Compound concentration 10.0 uM"}, "[29]": {"molecular_target": "5-hydroxytryptamine receptor 3A (Homo sapiens) (UniProt P46098)", "details": "Compound concentration 10.0 uM"}, "[30]": {"molecular_target": "Alpha-1D adrenergic receptor (Homo sapiens) (UniProt P25100)", "details": "Compound concentration 10.0 uM"}, "[31]": {"molecular_target": "Kappa-type opioid receptor (Homo sapiens) (UniProt P41145)", "details": "Compound concentration 10.0 uM"}, "[32]": {"molecular_target": "Delta-type opioid receptor (Homo sapiens) (UniProt P41143)", "details": "Compound concentration 10.0 uM"}, "[33]": {"molecular_target": "D(2) dopamine receptor (Homo sapiens) (UniProt P14416)", "details": "Compound concentration 10.0 uM"}, "[34]": {"molecular_target": "Histamine H3 receptor (Homo sapiens) (UniProt Q9Y5N1)", "details": "Compound concentration 10.0 uM"}, "[35]": {"molecular_target": "Histamine H1 receptor (Homo sapiens) (UniProt P35367)", "details": "Compound concentration 10.0 uM"}, "[36]": {"molecular_target": "5-hydroxytryptamine receptor 5A (Homo sapiens) (UniProt P47898)", "details": "Compound concentration 10.0 uM"}, "[37]": {"molecular_target": "T1, Sodium-dependent dopamine transporter", "details": "Compound concentration 10.0 uM"}, "[38]": {"molecular_target": "Histamine H2 receptor (Homo sapiens) (UniProt P25021)", "details": "Compound concentration 10.0 uM"}, "[39]": {"molecular_target": "Alpha-2C adrenergic receptor (Homo sapiens) (UniProt P18825)", "sequence (P18825 whole entry)": "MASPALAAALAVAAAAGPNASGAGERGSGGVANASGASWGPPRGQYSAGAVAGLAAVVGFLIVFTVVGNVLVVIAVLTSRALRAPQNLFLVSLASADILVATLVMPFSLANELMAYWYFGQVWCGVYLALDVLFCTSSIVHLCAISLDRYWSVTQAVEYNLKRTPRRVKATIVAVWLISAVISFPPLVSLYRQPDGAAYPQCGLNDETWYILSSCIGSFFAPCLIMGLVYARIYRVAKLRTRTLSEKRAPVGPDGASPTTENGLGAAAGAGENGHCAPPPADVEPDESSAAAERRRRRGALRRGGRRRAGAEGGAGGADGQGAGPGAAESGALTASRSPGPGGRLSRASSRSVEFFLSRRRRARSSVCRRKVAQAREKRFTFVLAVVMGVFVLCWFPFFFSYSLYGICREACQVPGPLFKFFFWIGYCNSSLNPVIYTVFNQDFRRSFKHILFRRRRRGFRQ", "details": "Compound concentration 10.0 uM"}, "[40]": {"molecular_target": "Sigma non-opioid intracellular receptor 1 (Homo sapiens) (UniProt Q99720)", "sequence (Q99720 whole entry)": "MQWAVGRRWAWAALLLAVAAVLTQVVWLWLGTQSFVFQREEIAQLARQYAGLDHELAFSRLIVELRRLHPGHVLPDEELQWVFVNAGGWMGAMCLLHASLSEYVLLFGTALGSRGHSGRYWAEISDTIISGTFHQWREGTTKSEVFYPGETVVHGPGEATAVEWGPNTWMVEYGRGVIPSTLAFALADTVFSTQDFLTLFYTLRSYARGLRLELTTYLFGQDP", "details": "Compound concentration 10.0 uM"}},
  "data": [
    {"compound": "CN(C)C(=O)c1sc2nc(N3CCC(S(C)(=O)=O)CC3)cc(C(F)(F)F)c2c1N", "note": "[BI-5026]", "values": [
      {"measurement": "inhibition", "setting": "[1]", "value": -7.86, "unit": "%"},
      {"measurement": "inhibition", "setting": "[2]", "value": 6.22, "unit": "%"},
      {"measurement": "inhibition", "setting": "[3]", "value": 3.63, "unit": "%"},
      {"measurement": "inhibition", "setting": "[4]", "value": 7.05, "unit": "%"},
      {"measurement": "inhibition", "setting": "[5]", "value": 18.1, "unit": "%"},
      {"measurement": "IC50", "setting": "[6]", "value": "> 10 µM (not active)"},
      {"measurement": "Ki", "setting": "[7]; read-out: Ki", "value": 4.27, "unit": "µM"},
      {"measurement": "Ki", "setting": "[7]; read-out: pKi (converted)", "value": 4.27, "unit": "µM"},
      {"measurement": "inhibition", "setting": "[8]", "value": 13, "unit": "%"},
      {"measurement": "inhibition", "setting": "[9]", "value": 3.61, "unit": "%"},
      {"measurement": "inhibition", "setting": "[10]", "value": 4.15, "unit": "%"},
      {"measurement": "inhibition", "setting": "Rattus norvegicus", "value": 27.9, "unit": "%"},
      {"measurement": "inhibition", "setting": "[11]", "value": 2.45, "unit": "%"},
      {"measurement": "inhibition", "setting": "[12]", "value": 0.25, "unit": "%"},
      {"measurement": "inhibition", "setting": "[13]", "value": 1.7, "unit": "%"},
      {"measurement": "inhibition", "setting": "[14]", "value": 24.2, "unit": "%"},
      {"measurement": "inhibition", "setting": "[15]", "value": 22.8, "unit": "%"},
      {"measurement": "inhibition", "setting": "[16]", "value": 70.6, "unit": "%"},
      {"measurement": "inhibition", "setting": "[17]", "value": 3.36, "unit": "%"},
      {"measurement": "inhibition", "setting": "[18]", "value": -1.79, "unit": "%"},
      {"measurement": "inhibition", "setting": "[19]", "value": 1.22, "unit": "%"},
      {"measurement": "inhibition", "setting": "[20]", "value": 13.4, "unit": "%"},
      {"measurement": "inhibition", "setting": "[21]", "value": -6.93, "unit": "%"},
      {"measurement": "inhibition", "setting": "[22]", "value": 47.5, "unit": "%"},
      {"measurement": "inhibition", "setting": "[23]", "value": 13.5, "unit": "%"},
      {"measurement": "inhibition", "setting": "[24]", "value": 40.6, "unit": "%"},
      {"measurement": "inhibition", "setting": "[25]", "value": 11.6, "unit": "%"},
      {"measurement": "inhibition", "setting": "[26]", "value": 22.4, "unit": "%"},
      {"measurement": "inhibition", "setting": "[27]", "value": 2.32, "unit": "%"},
      {"measurement": "inhibition", "setting": "[28]", "value": 6.7, "unit": "%"},
      {"measurement": "inhibition", "setting": "[29]", "value": 10.3, "unit": "%"},
      {"measurement": "inhibition", "setting": "[30]", "value": 7.27, "unit": "%"},
      {"measurement": "inhibition", "setting": "[31]", "value": 9.53, "unit": "%"},
      {"measurement": "inhibition", "setting": "[32]", "value": 8.58, "unit": "%"},
      {"measurement": "inhibition", "setting": "[33]", "value": 1.12, "unit": "%"},
      {"measurement": "inhibition", "setting": "[34]", "value": -1.1, "unit": "%"},
      {"measurement": "inhibition", "setting": "[35]", "value": 24.5, "unit": "%"},
      {"measurement": "inhibition", "setting": "[36]", "value": 5.35, "unit": "%"},
      {"measurement": "inhibition", "setting": "[37]", "value": 80.5, "unit": "%"},
      {"measurement": "inhibition", "setting": "[38]", "value": -1.35, "unit": "%"},
      {"measurement": "inhibition", "setting": "[39]", "value": 2.96, "unit": "%"},
      {"measurement": "inhibition", "setting": "[40]", "value": 31.5, "unit": "%"}
    ]}
  ]
}
